According to ChEMBL document CHEMBL3621179, “Styrylphenylphthalimides as Novel Transrepression-Selective Liver X Receptor (LXR) Modulators” (ACS Med Chem Lett, 2015):
pIC50: −log10 of the molar value. Active and inactive are the calls of the source. The calls are words filed in the database; no cut-off is given here.

Experiments:
THP-1 [1] = assay: Effect on ABCA1 gene expression in human THP1 cells at 10 uM by RT-PCR analysis; format: functional, cell-based
THP-1 [2] = assay: Inhibition of LPS-induced IL-6 production in human THP1 cells transfected with LXR-beta CRISPR/Cas9 knockout plasmid at 5 uM after 18 hrs by ELISA; format: functional, cell-based
[3] = biological target: T1, Oxysterols receptor LXR-beta (Homo sapiens, UniProt P55055); assay: Antagonist activity at human LXR-beta transfected in HEK293 cells after 16 hrs by luciferase reporter gene assay in presence of 0.1 uM N-(4-(1,1,1,3,3,3-hexafluoro-2-hydroxypropan-2-yl)phenyl)-N-(2,2,2-trifluoroethyl)benzenesulfonamide; format: cell-based
[4] = biological target: Oxysterols receptor LXR-alpha (Homo sapiens, UniProt Q13133); assay: Antagonist activity at human LXR-alpha transfected in HEK293 cells after 16 hrs by luciferase reporter gene assay in presence of 0.3 uM N-(4-(1,1,1,3,3,3-hexafluoro-2-hydroxypropan-2-yl)phenyl)-N-(2,2,2-trifluoroethyl)benzenesulfonamide; format: cell-based
[5] = biological target: T1, Oxysterols receptor LXR-beta; assay: Binding affinity to LXR-beta ligand binding domain (unknown origin) by TR-FRET assay in presence of 0.1 uM agonist N-(4-(1,1,1,3,3,3-hexafluoro-2-hydroxypropan-2-yl)phenyl)-N-(2,2,2-trifluoroethyl)benzenesulfonamide
THP-1 [6] = assay: Effect on SREBP-1c gene expression in human THP1 cells at 10 uM by RT-PCR analysis; format: functional, cell-based
[7] = biological target: T2, Peroxisome proliferator-activated receptor gamma (Homo sapiens) (UniProt P37231); assay: Agonist activity at PPAR-gamma (unknown origin) by luciferase reporter gene assay
T2 sequence (whole entry): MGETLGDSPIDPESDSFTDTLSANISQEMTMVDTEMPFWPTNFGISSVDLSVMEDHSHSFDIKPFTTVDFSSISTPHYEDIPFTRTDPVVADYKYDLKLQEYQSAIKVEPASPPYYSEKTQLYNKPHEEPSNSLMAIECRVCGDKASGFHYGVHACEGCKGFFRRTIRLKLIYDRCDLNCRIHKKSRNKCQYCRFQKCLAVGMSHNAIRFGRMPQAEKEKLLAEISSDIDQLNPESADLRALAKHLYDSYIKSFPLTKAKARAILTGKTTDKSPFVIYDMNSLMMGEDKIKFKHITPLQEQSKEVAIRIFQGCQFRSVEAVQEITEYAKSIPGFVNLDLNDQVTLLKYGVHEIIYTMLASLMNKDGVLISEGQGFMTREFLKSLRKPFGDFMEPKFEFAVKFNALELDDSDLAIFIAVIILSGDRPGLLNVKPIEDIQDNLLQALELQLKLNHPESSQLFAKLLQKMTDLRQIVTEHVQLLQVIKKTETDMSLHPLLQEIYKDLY

[8] = biological target: T3, Peroxisome proliferator-activated receptor delta (Homo sapiens) (UniProt Q03181); assay: Agonist activity at PPAR-delta (unknown origin) by luciferase reporter gene assay
T3 sequence (whole entry): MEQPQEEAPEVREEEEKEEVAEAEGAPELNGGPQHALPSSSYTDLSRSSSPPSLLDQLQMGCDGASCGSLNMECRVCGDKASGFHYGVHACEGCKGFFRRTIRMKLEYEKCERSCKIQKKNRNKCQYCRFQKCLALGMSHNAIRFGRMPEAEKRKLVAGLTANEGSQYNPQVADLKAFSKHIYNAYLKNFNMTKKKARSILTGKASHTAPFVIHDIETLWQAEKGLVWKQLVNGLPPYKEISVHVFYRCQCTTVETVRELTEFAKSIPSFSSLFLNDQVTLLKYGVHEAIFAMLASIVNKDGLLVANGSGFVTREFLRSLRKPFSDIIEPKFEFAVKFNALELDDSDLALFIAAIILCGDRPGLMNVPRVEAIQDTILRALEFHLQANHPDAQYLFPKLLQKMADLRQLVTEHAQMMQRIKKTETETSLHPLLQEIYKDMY

[9] = biological target: T4, Peroxisome proliferator-activated receptor alpha (Homo sapiens) (UniProt Q07869); assay: Agonist activity at PPAR-alpha (unknown origin) by luciferase reporter gene assay
T4 sequence (whole entry): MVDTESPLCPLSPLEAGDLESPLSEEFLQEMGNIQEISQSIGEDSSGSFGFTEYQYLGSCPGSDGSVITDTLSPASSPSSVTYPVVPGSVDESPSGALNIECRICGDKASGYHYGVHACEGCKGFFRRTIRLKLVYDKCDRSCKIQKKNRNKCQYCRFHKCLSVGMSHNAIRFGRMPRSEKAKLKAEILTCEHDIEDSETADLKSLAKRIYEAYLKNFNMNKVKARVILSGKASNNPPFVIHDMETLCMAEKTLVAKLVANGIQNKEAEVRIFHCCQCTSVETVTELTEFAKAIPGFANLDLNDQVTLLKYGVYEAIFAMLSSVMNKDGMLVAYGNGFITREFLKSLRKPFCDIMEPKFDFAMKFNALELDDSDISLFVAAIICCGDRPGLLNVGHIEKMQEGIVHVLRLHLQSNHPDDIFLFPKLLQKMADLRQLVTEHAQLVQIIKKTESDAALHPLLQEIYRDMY

T1 sequence (P55055 whole entry): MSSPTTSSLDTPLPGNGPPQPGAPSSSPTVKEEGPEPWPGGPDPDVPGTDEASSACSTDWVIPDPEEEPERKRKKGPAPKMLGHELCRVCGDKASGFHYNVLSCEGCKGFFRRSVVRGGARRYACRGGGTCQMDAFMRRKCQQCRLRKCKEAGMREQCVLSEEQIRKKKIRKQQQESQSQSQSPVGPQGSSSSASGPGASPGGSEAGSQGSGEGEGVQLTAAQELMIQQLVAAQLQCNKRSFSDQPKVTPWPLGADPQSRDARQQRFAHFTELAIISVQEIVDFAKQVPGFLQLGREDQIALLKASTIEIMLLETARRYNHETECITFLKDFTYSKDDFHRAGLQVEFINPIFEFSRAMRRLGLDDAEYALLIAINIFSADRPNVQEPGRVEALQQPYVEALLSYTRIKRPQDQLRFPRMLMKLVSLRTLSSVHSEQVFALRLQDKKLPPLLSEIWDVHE
Chain of Oxysterols receptor LXR-alpha (Q13133 whole entry, the tested form may be a part): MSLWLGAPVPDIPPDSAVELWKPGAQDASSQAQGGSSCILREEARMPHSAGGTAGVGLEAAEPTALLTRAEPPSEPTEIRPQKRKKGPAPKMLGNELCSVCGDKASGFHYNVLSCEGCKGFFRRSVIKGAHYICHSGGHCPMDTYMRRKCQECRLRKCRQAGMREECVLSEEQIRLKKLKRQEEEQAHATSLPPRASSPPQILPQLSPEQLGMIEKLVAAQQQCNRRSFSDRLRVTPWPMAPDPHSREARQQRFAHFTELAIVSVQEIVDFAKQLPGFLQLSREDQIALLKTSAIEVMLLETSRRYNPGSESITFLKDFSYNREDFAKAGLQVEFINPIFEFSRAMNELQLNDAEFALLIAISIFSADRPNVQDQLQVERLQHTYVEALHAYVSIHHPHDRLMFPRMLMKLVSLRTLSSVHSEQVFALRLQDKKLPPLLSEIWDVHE

Compound: COc1ccc(/C=C/c2ccccc2N2C(=O)c3ccccc3C2=O)cc1OC
- Activity (THP-1 [1]): inactive
- inhibition (THP-1 [2]): inactive
- pIC50 [3]: 5.37
- pIC50 [4]: 5.48
- pIC50 [5]: 5.74
- Activity (THP-1 [6]): inactive
- inhibition [7]: Active
- inhibition [8]: Active
- inhibition [9]: Active

Compound: COc1ccc(/C=C\c2ccccc2N2C(=O)c3ccccc3C2=O)cc1OC
- pIC50 [3]: 4.68
- pIC50 [4]: 4.77
